Test results as given in PubChem BioAssay (NCI).
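Five compound concentrations were applied to cells in 96-well plates for 48 hours; endpoints were derived by simple linear interpolation of the resulting dose-response curve. Definition used: TGI = concentration required for complete inhibition of growth.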

Key:
Assay in all cases: growth of human tumour cells (NCI), 48 h
[1] = tested on: CAKI-1 renal
[2] = tested on: MDA-N
[3] = tested on: NCI/ADR-RES ovarian
[4] = tested on: SF-295 CNS
[5] = tested on: HCT-15 colon
[6] = tested on: SR leukemia
[7] = tested on: MDA-MB-435
[8] = tested on: RXF 393 renal
[9] = tested on: CCRF-CEM leukemia
[10] = tested on: SK-MEL-5 melanoma
[11] = tested on: SK-MEL-2 melanoma
[12] = tested on: OVCAR-3 ovarian
[13] = tested on: HOP-92 NSCLC
[14] = tested on: NCI-H23 lung
[15] = tested on: HCT-116 colon
[16] = tested on: SK-MEL-28 melanoma
[17] = tested on: KM12 colon
[18] = tested on: SNB-75 CNS
[19] = tested on: MDA-MB-231 breast
[20] = tested on: SW-620 colon
[21] = tested on: OVCAR-5 ovarian
[22] = tested on: HT29 colon
[23] = tested on: IGROV1 ovarian
[24] = tested on: OVCAR-8 ovarian
[25] = tested on: K-562 leukemia
[26] = tested on: SNB-19 CNS
[27] = tested on: DU-145 prostate
[28] = tested on: UACC-257 melanoma
[29] = tested on: MOLT-4 leukemia
[30] = tested on: A498 renal
[31] = tested on: U251 CNS
[32] = tested on: SK-OV-3 ovarian
[33] = tested on: 786-0 renal
[34] = tested on: HCC-2998 colon
[35] = tested on: TK-10 renal
[36] = tested on: UACC-62 melanoma
[37] = tested on: ACHN renal
[38] = tested on: NCI-H522 lung
[39] = tested on: PC-3 prostate
[40] = tested on: SF-268 CNS
[41] = tested on: M14 melanoma
[42] = tested on: HL-60(TB) leukemia
[43] = tested on: NCI-H460 lung
[44] = tested on: HS 578T breast
[45] = tested on: RPMI-8226 leukemia
[46] = tested on: MCF7 breast
[47] = tested on: SN12C renal
[48] = tested on: EKVX NSCLC
[49] = tested on: A549 NSCLC
[50] = tested on: NCI-H226 lung
[51] = tested on: SF-539 CNS
[52] = tested on: COLO 205 colon
[53] = tested on: MALME-3M melanoma
[54] = tested on: T-47D breast
[55] = tested on: OVCAR-4 ovarian
[56] = tested on: UO-31 renal
[57] = tested on: BT-549 breast
[58] = tested on: HOP-62 NSCLC
[59] = tested on: LOX IMVI melanoma

Cc1ccc2c(c1C)C(=O)C1(Cc3cc4c(cc3C1=O)CCC4)C2 (stereo unspecified)
TGI [1]: > 100 µM | TGI [2]: > 100 µM | TGI [3]: > 100 µM | TGI [4]: > 100 µM | TGI [5]: > 100 µM | TGI [6]: > 100 µM | TGI [7]: > 100 µM | TGI [8]: > 100 µM | TGI [9]: > 100 µM | TGI [10]: > 100 µM | TGI [11]: > 100 µM | TGI [12]: > 100 µM | TGI [13]: > 100 µM | TGI [14]: > 100 µM | TGI [15]: > 100 µM | TGI [16]: > 100 µM | TGI [17]: > 100 µM | TGI [18]: > 100 µM | TGI [19]: > 100 µM | TGI [20]: > 100 µM | TGI [21]: > 100 µM | TGI [22]: > 100 µM | TGI [23]: > 100 µM | TGI [24]: > 100 µM | TGI [25]: > 100 µM | TGI [26]: > 100 µM | TGI [27]: > 100 µM | TGI [28]: > 100 µM | TGI [29]: > 100 µM | TGI [30]: > 100 µM | TGI [31]: > 100 µM | TGI [32]: > 100 µM | TGI [33]: > 100 µM | TGI [34]: > 100 µM | TGI [35]: > 100 µM | TGI [36]: > 100 µM | TGI [37]: > 100 µM | TGI [38]: > 100 µM | TGI [39]: > 100 µM | TGI [40]: > 100 µM | TGI [41]: > 100 µM | TGI [42]: > 100 µM | TGI [43]: > 100 µM | TGI [44]: > 100 µM | TGI [45]: > 100 µM | TGI [46]: > 100 µM | TGI [47]: > 100 µM | TGI [48]: > 100 µM | TGI [49]: > 100 µM | TGI [50]: > 100 µM | TGI [51]: > 100 µM | TGI [52]: > 100 µM | TGI [53]: > 100 µM | TGI [54]: > 100 µM | TGI [55]: > 100 µM | TGI [56]: > 100 µM | TGI [57]: > 100 µM

COC(=O)/C=C(/C=C1/C(C#N)=C(N)N(c2ccc(Cl)cc2)C1(C)/C(=C\C(=O)OC)C(=O)OC)C(=O)OC (stereo unspecified)
TGI [1]: 45.5 µM | TGI [2]: 30.8 µM | TGI [3]: 36.9 µM | TGI [4]: > 100 µM | TGI [5]: 50.2 µM | TGI [6]: > 100 µM | TGI [7]: 41 µM | TGI [8]: 35.4 µM | TGI [9]: > 100 µM | TGI [58]: > 100 µM | TGI [10]: 29.4 µM | TGI [11]: 72.2 µM | TGI [12]: 42.3 µM | TGI [13]: 48 µM | TGI [14]: 40.5 µM | TGI [15]: 31.2 µM | TGI [16]: 36.2 µM | TGI [17]: 37 µM | TGI [18]: 63.3 µM | TGI [19]: 53.4 µM | TGI [20]: 30.8 µM | TGI [21]: 48.3 µM | TGI [22]: 39 µM | TGI [23]: 60.2 µM | TGI [24]: 33.7 µM | TGI [25]: > 100 µM | TGI [26]: > 100 µM | TGI [27]: 89.2 µM | TGI [28]: 35.8 µM | TGI [29]: 78.9 µM | TGI [30]: > 100 µM | TGI [31]: 60.2 µM | TGI [32]: > 100 µM | TGI [33]: 32.7 µM | TGI [34]: 39.2 µM | TGI [35]: 81 µM | TGI [59]: 32.4 µM | TGI [36]: 27.4 µM | TGI [37]: 76.8 µM | TGI [38]: 16.4 µM | TGI [39]: 35 µM | TGI [40]: 47.8 µM | TGI [41]: 39.1 µM | TGI [42]: > 100 µM | TGI [43]: 46.3 µM | TGI [44]: > 100 µM | TGI [45]: > 100 µM | TGI [46]: 46.2 µM | TGI [47]: 37.6 µM | TGI [48]: > 100 µM | TGI [49]: > 100 µM | TGI [50]: 86.4 µM | TGI [51]: 32.7 µM | TGI [52]: 29.8 µM | TGI [53]: 58.8 µM | TGI [54]: 39.5 µM | TGI [55]: 60.5 µM | TGI [56]: 41.2 µM | TGI [57]: 30.2 µM
